Source: patent publication US10098878B2, “HIF-2α inhibitors for treating iron overload disorders” (The Board of Regents of the University of Texas System, priority 2014, dated 2018)
Where two headings read alike, the source gives them in different places.

Molecular target: T1, HIF-2α HIS TAG-PASB Domain (Homo sapiens, UniProt Q99814)
T1 construct: 100 nM HIF-2α HIS TAG-PASB Domain
Experiment: HIF-2α Scintillation Proximity Assay (SPA)
Type: binding
Details: 100 nM HIF-2α HIS TAG-PASB Domain
Method: The total assay volume was about 100 μL in the following configuration: 2 μL compound in 100% DMSO, 88 μL buffer with protein and probe and 10 μL of SPA beads. […] The percent inhibition was determined and IC50 values were calculated using the Dotmatics system based on the following equation: % inhibition=[(high control−sample)/(high control−low control)]×100.

[1] = SPA IC50, 150 nM Compound 211 probe
[2] = 150 nM Compound 211 probe, read-out: SPA IC50

T1 sequence (Q99814 240-350 limits assumed): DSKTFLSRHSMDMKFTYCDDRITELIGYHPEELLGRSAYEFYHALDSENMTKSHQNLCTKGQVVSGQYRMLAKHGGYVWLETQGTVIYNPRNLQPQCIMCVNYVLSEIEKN

IC50 [1] | IC50 [2] | SMILES
– | 12.9 µM | N#Cc1c(Oc2cc(F)cc(Cl)c2)ccc2c1[C@H](O)CS2(=O)=O [Compound 171, (3S)-5-(3-Chloro-5-fluoro-phenoxy)-3-hydroxy-1,1-dioxo-2,3-dihydrobenzothiophene-4-carbonitrile]
– | 4.66 µM | O=S1(=O)C[C@H](O)c2c1ccc(Oc1cc(F)cc(F)c1)c2Br [Compound 177, (R)-4-bromo-5-(3,5-difluorophenoxy)-3-hydroxy-2,3-dihydrobenzo[b]thiophene 1,1-dioxide]
– | 13.4 µM | N#Cc1cc(F)cc(Oc2ccc3c(c2Br)[C@@H](O)CS3(=O)=O)c1 [Compound 179, (R)-3-((4-Bromo-3-hydroxy-1,1-dioxido-2,3-dihydrobenzo[b]thiophen-5-yl)oxy)-5-fluorobenzonitrile]
– | 17.1 µM | O=S1(=O)CC(O)c2c1ccc(Oc1cc(F)cc(F)c1)c2Br (stereo not drawn) [Compound 182, 4-Bromo-5-(3,5-difluorophenoxy)-3-hydroxy-2,3-dihydrobenzo[b]thiophene 1,1-dioxide]
– | 13.7 µM | O=S1(=O)C[C@H](O)c2c1ccc(Oc1cccc(F)c1)c2Br [Compound 183, (R)-4-bromo-5-(3-fluorophenoxy)-3-hydroxy-2,3-dihydrobenzo[b]thiophene 1,1-dioxide]
– | 10.2 µM | N#Cc1cncc(Oc2ccc3c(c2Br)[C@@H](O)CS3(=O)=O)c1 [Compound 184, (R)-5-((4-bromo-3-hydroxy-1,1-dioxido-2,3-dihydrobenzo[b]thiophen-5-yl)oxy)nicotinonitrile]

More lines, now with the values behind:

SMILES | IC50 [1] | IC50 [2]
O=S1(=O)CCC(O)c2c1ccc(Oc1cc(F)cc(F)c1)c2C(F)F (stereo not drawn) [Compound 166, 5-(Difluoromethyl)-6-(3,5-difluorophenoxy)-4-hydroxythiochromane 1,1-dioxide] | 4.1 µM | –
O=C1c2c(ccc(Oc3cc(F)cc(Cl)c3)c2Br)S(=O)(=O)C12CC2 [Compound 168, 4-Bromo-5-(3-chloro-5-fluoro-phenoxy)-1,1-dioxo-spiro[benzothiophene-2,1′-cyclopropane]-3-one] | – | 6.3 µM
CC1(C)C(O)c2c(ccc(Oc3cc(F)cc(Cl)c3)c2Br)S1(=O)=O (stereo not drawn) [Compound 170, 4-Bromo-5-(3-chloro-5-fluoro-phenoxy)-2,2-dimethyl-1,1-dioxo-3H-benzothiophen-3-ol] | 21.9 µM | –
CC1(C)C(O)c2c(ccc(Oc3cc(F)cc(Cl)c3)c2C#N)S1(=O)=O (stereo not drawn) [Compound 172, 5-(3-Chloro-5-fluoro-phenoxy)-3-hydroxy-2,2-dimethyl-1,1-dioxo-3H-benzothiophene-4-carbonitrile] | – | 19.6 µM
N#Cc1cc(F)cc(Oc2ccc3c(c2C#CCF)C(O)C(F)(F)S3(=O)=O)c1 (stereo not drawn) [Compound 174, 3-[[2,2-Difluoro-4-(3-fluoroprop-1-ynyl)-3-hydroxy-1,1-dioxo-3H-benzothiophen-5-yl]oxy]-5-fluoro-benzonitrile] | – | 10.9 µM
O=C1CS(=O)(=O)c2ccc(Oc3cc(F)cc(F)c3)cc21 [Compound 181, 5-(3,5-Difluorophenoxy)benzo[b]thiophen-3(2H)-one 1,1-dioxide] | – | 17.6 µM
CC1(O)c2cc(Oc3cc(F)cc(F)c3)ccc2S(=O)(=O)C1(F)F (stereo not drawn) [Compound 189, 5-(3,5-Difluorophenoxy)-2,2-difluoro-3-hydroxy-3-methyl-2,3-dihydrobenzo[b]thiophene 1,1-dioxide] | – | 6.86 µM
COc1cncc(Oc2ccc3c(c2Br)[C@@H](O)C(F)(F)S3(=O)=O)c1 [Compound 193, (R)-4-bromo-2,2-difluoro-3-hydroxy-5-((5-methoxypyridin-3-yl)oxy)-2,3-dihydrobenzo[b]thiophene 1,1-dioxide] | – | 14.3 µM
CCOc1ccc2c(c1C(F)F)[C@@H](O)C(F)(F)S2(=O)=O [Compound 202, (R)-4-(Difluoromethyl)-5-ethoxy-2,2-difluoro-3-hydroxy-2,3-dihydrobenzo[b]thiophene 1,1-dioxide] | – | 15.5 µM
